From patent US9833425B2, “Gentisic acid is used to improve systemic hemodynamics, hepatic mitochondrial function and lactate acidemia in patients with septic shock” (priority 2015, dated 2017)
“Also recorded” adds a separate entry of the source.

Columns and labels:
hepatic mitochondria = experiment: Oxygen consumption rates of hepatic mitochondria harvested after in vivo treatment (Seahorse XF24); design: species or system dog; conditions: treated septic dogs; for coupled respiration (OCR after ADP) of hepatic mitochondria: ADP 4 mM; for maximal (uncoupled) respiration (OCR after FCCP) of hepatic mitochondria: FCCP 4 uM
Description: After completion of the in-vivo measurements, we administered sodium pentobarbital (110 mg/kg) to euthanize the animal. In a subset of animals of each group, we immediately harvested a piece of liver and isolated the mitochondria as described by Schnaitman and Greenawalt (23). Briefly, we minced the extracted liver in mitochondrial isolation buffer (MSHE) that includes 70 mM sucrose, 210 mM mannitol, 5 mM HEPES, 1 mM EGTA, and fatty acid free bovine serum albumin (BSA). We then disrupted the tissue using a drill-driven glass/Teflon dounce homogenizer. We centrifuged the homogenate three times, after which we re-suspended the final pellet in a minimal volume of MSHE+BSA and determined protein (mg/ml). We diluted the mitochondrial preparation in cold mitochondrial assay solution (MAS) that contained 70 mM sucrose, 220 mM mannitol, 10 mM KH2PO4, 5 mM MgCl2, 2 mM HEPES, 1 mM EGTA, and BSA for plating directly onto the custom Seahorse 24-well culture dish (˜20 ug mitochondrial protein/50 ul per well; see further below). After centrifugation of the plate and addition of appropriate substrates, we viewed the mitochondria under a microscope to ensure consistent adherence to the well. We then transferred the plate to the XF24 Analyzer for initiation of the protocol as described below (17).
To examine mitochondrial function in this model, we used a novel new technology that is capable of measuring dynamic changes in mitochondrial function, not easily attainable by other technologies (17). The Seahorse® XF24 extracellular flux analyser (Seahorse Bioscience, MA, USA) refines the technology by which mitochondrial oxygen consumption can be measured. This technology uses a piston to reversibly enclose a small volume (7 ul) above the mitochondria that can monitor oxygen uptake in that volume for 2-5 min, then raises the piston, allowing the bulk incubation medium (˜1 ml) to re-equilibrate. The ability to make up to 4 additions during the experiment allows mitochondrial respiration to be measured under various metabolic conditions. This piece of equipment has never been used to measure mitochondrial function in SS.
In this protocol, we sequentially measured mitochondrial function under various metabolic conditions (17). To obtain basal OCR, we first added a substrate to the preparation that contained pyruvate (10 mM) and malate (2 mM). We then added ADP (adenosine-diphosphate; 4 mM) that allows ATP synthase to function, producing an increase in OCR (coupled OCR) that is termed “state3ADP”. When the ATP/ADP ratio approaches equilibrium, pmf rises, after which proton reentry through the synthase stops and respiration slows. We terminated coupled respiration (i.e. state3ADP) by the addition of the ATP synthase inhibitor oligomycin (2.0 uM) in which we achieved “stateoligomycin” where ATP recycling cannot contribute and there is a stable decrease in OCR. We then added the protonophore, FCCP (4 uM; carbonyl cyanide p-trifluoromethoxy-phenylhydrazone). FCCP leads to uncoupled respiration in which we previously titrated the concentration of FCCP to yield a maximal effect. In mitochondria in which ATP synthase activity is a limiting factor, uncoupled respiration may be greater than coupled respiration. […] We finally added rotenone (R; 2 uM) and antimycin A (AA; 2 uM) which are inhibitors of the electron transport chain (ETC) complexes, I and III, respectively. When added to the mitochondrial preparation, these inhibitors produce a marked decline in mitochondrial respiration since the electron transport chain is inhibited.
With each treatment group, we obtained measurements of basal OCR, coupled OCR (i.e. state3ADP), and maximal OCR. In addition, we calculated coupled and uncoupled respiratory control ratios from state3ADP/stateoligomycin and uncoupled respiration/state FCCP/stateoligomycin, respectively. […]

[1] = tested on: mitochondrial complex IV (cytochrome c oxidase); experiment: Enzymatic activity of hepatic mitochondrial complex IV; type: biochemical, dog; conditions: hepatic mitochondria of treated septic dogs; mean ± SD
From the text: As part of our assessment of mitochondrial function, we also measured the enzymatic activity of hepatic mitochondrial complex IV based on the rationale of Levy et al (10), since these investigators considered that dysfunction of complex IV was the most important determinant of abnormal mitochondrial function in SS. We determined complex IV activity spectrophotometrically by a temperature-controlled Ultrospec™ 2100 ultraviolet-visible spectrophotometer (Biopharmacia Biotech, Uppsala, Sweden) (17). Complex IV activity was measured at 25° C. by monitoring the absorbance decrease of reduced cytochrome c at 550 nm.

[2] = listed as gentisic, sodium salt

Row | Structure (SMILES) | coupled respiration (OCR after ADP) of hepatic mitochondria (hepatic mitochondria) | maximal (uncoupled) respiration (OCR after FCCP) of hepatic mitochondria (hepatic mitochondria) | enzymatic activity of mitochondrial complex IV [1] [umol/min/mg protein] | coupled respiration (OCR after ADP) of hepatic mitochondria (hepatic mitochondria; [2]) | coupled respiration (OCR after ADP) of hepatic mitochondria (hepatic mitochondria; sodium salt) | augmented respiratory capacity (uncoupled minus coupled respiration) (hepatic mitochondria; [2]) | basal respiration (basal OCR) of hepatic mitochondria (hepatic mitochondria; pyruvate and malate substrate)
1 | O=C(O)c1cc(O)c(O)c(O)c1 [gallic acid, 3,4,5 trihydroxybenzoic acid] | not different from values found in the non-septic control group | restored the reduction in maximal respiration | 2.44±0.63 |  |  |  | 
2 | O=C([O-])c1cc(O)ccc1O.[Na+] [GSS, 2,5-dihydroxybenzoic acid sodium salt] |  | increase maximal OCR | 3.68±0.59 | significantly greater than the other groups; also recorded: large increase in coupled respiration | greater response to ADP as compared to the other groups | lowest; also recorded: reduction in augmented respiratory capacity | restoring basal respiration to the non-septic control value
